Assays:
DLBCL cell lines = test: CellTiter-Glo luminescent cell viability assay, DLBCL cell lines; format: cell-based, human; settings: 72h incubation, CTG assay
Procedure: (§1) Hereto, the 50% inhibitory concentration (IC50) was determined in said cancer cell lines using the CellTiter-Glo® (CTG) luminescent cell viability assay after a 72h incubation with different concentrations of the two drugs ranging from 10 nM to 100 uM.
(§2) All cell lines were cultured in the media supplemented with 10-15% FBS, at a temperature of 37° C., 5% CO2 and 95% humidity. Cell viability was measured using the CTG Luminescent Cell Viability Assay by standard procedures. Satraplatin was purchased from MedChemExpress (China) and cisplatin from Qilu Pharm (China), respectively. 1 mM solution of both drugs were established for storage at -20° C. as previously described (Wosikowski K et al., Cancer Chemother Pharmacol (2007) 60(4):589-600).
(§3) Cells were harvested during the logarithmic growth period and count cell number using Count-star. Cell concentrations were adjusted to 4.44×10^4 cells/mL with the respective culture medium. […] Luminescence was recorded using EnVision Multi Label Reader.
(§4) In order to calculate absolute IC50 (EC50), a dose-response curve was fitted using a nonlinear regression model with a sigmoidal dose response. […] The absolute IC50 (EC50) was calculated according to the dose-response curve generated by GraphPad Prism 5.0. The standard deviation was calculated for each dose level and each cell line and is indicated by the bars.

[1] = test system: lymphoma and myeloma cell lines; test: CellTiter-Glo luminescent cell viability assay, panel of 41 lymphoma and multiple myeloma cell lines; format: cell-based, human
Procedure: as §1, §2
Cells were harvested during the logarithmic growth period and count cell number using Count-star. Cell concentrations were adjusted to 4.44×10^4 cells/mL with the respective culture medium. Then, 90 µL cell suspensions were added in triplicate to two 96-well plates (plates A and B) with the final cell density of 4×10^3 cells/well. […] For that purpose, plates were equilibrated at RT for approximately 30 min. Then, 50 µL CTG reagent was added to each well. The content was mixed for 5 min on an orbital shaker to induce cell lysis and the plate incubated at RT for 20 min to stabilize luminescent signal. Luminescence was recorded using EnVision Multi Label Reader.
In order to calculate absolute IC50 (EC50), a dose-response curve was fitted using a nonlinear regression model with a sigmoidal dose response. The formula for calculating surviving rate is: The surviving rate (%) = (LumTest article-LumMedium control)/(LumNon-treated-LumMedium control)×100%. The absolute IC50 (EC50) was calculated according to the dose-response curve generated by GraphPad Prism 5.0. The standard deviation was calculated for each dose level and each cell line and is indicated by the bars.

OCI Ly-3 cell line = test: CellTiter-Glo luminescent cell viability assay, OCI-LY-3; format: cell-based, human; settings: PCNSL-like DLBCL cell line, FIG. 3K, 72h
Procedure: as §1, §2, §3, §4

OCI-LY7 cells = test: CellTiter-Glo luminescent cell viability assay, OCI-LY-7; format: cell-based, human; settings: DLBCL cell line, 72h
Procedure: as §1, §2, §3, §4

[2] = test system: B-cell lymphoma cell lines (Burkitt lymphoma, mantle cell lymphoma, DLBCL); test: CellTiter-Glo luminescent cell viability assay, B-cell lymphoma cell lines; format: cell-based, human; settings: mantle cell lymphoma and DLBCL cell lines, FIGS. 1-3
Procedure: as §1, §2, §3, §4

[3] = in vivo, po; cited from earlier work
[4] = in vivo; cited from earlier work
[5] = test system: multiple myeloma cell lines; test: CellTiter-Glo luminescent cell viability assay, multiple myeloma cell lines; format: cell-based, human; settings: FIG. 5
Procedure: as §1, §2, §3, §4

[6] = test system: T-cell lymphoma cell lines; test: CellTiter-Glo luminescent cell viability assay, T-cell lymphoma cell lines; format: cell-based, human; settings: particularly ALK+ ALCL, FIG. 4A-4D
Procedure: as §1, §2, §3, §4

[7] = test system: metastatic prostate cancer; settings: SPARC trial, patients receiving satraplatin; cited from earlier work

SMILES	IC50 values in DLBCL cell lines (DLBCL cell lines)	relative sensitivity of certain cell lines ([1]; DOHH2, OCI Ly19, SUDHL5, OCI Ly3, Toledo, Z138, Daudi, SUDHL1, HuT78 cell lines, FIG. 6)	IC 50 values, killing of lymphoma cell lines ([1]; FIGS. 1-6, 72h incubation)	sensitivity of all cell lines described ([1]; all tested cell lines)	killing of OCI Ly-3 (OCI Ly-3 cell line)	killing of OCI-LY7 cells compared to cisplatin (OCI-LY7 cells)	inducing cell death, compared to cisplatin [2]	nephro- or neurotoxicity in clinical trials [3]	CNS penetration [4]	inducing cell death, compared to cisplatin [5]	inducing cell death, compared to cisplatin [6]	patients showing a relevant PSA-response (decline of more than 50%) [7] [%]
CC(=O)[O][Pt]([NH2])([Cl])([Cl])([NH]C1CCCCC1)[O]C(C)=O [satraplatin, bis (acetato) ammine dichloro (cyclohexylamine) platinum (IV)]	low micromolar or even sub-molar	particularly sensitive	low micromolar concentrations or even lower	sensitive	very effectively killed	significantly superior	at least equivalent to cisplatin	no or not relevant nephro- or neurotoxicity	clinically proven meaningful CNS penetration	at least equivalent to cisplatin	at least equivalent to cisplatin	25
N.N.[Cl][Pt][Cl] [cisplatin]	low micromolar or even sub-molar											
